Data published in ChEMBL document CHEMBL1142948, “Somatostatin receptor-binding peptides suitable for tumor radiotherapy with Re-188 or Re-186. Chemistry and initial biological studies” (J Med Chem, 2007).

target: Somatostatin receptor; assay: Displacement of [125I-Tyr-11]-SRIF from SSTR of human NCI-H69 cell membranes; conditions: not given

Compound	IC50
C[C@@H](O)[C@@H]1NC(=O)[C@H](CCCCN)NC(=O)[C@@H](Cc2c[nH]c3ccccc23)NC(=O)[C@H](Cc2ccc(O)cc2)NC(=O)[C@H](CCSCC(=O)NC[C@H](N)C(=O)N[C@@H](CO)C(=O)N[C@@H](CS)C(=O)N[C@H](CO)[C@@H](C)O)N(C)C(=O)[C@H](Cc2ccccc2)NC1=O	1.6 nM
C[C@@H](O)[C@H](NC(=O)CSCC[C@H]1C(=O)N[C@@H](Cc2ccc(O)cc2)C(=O)N[C@H](Cc2c[nH]c3ccccc23)C(=O)N[C@@H](CCCCN)C(=O)N[C@@H]([C@@H](C)O)C(=O)N[C@@H](Cc2ccccc2)C(=O)N1C)C(=O)NCC(=O)NCC(=O)N[C@@H](CS)C(N)=O	1.6 nM

The remaining lines, values ahead:

IC50	Compound
0.64 nM	C[C@@H](O)[C@H](NC(=O)[C@H](CS)NC(=O)[C@H](Cc1ccc(N)cc1)NC(=O)[C@@H](N)CNC(=O)CSCC[C@H]1C(=O)N[C@@H](Cc2ccc(O)cc2)C(=O)N[C@H](Cc2c[nH]c3ccccc23)C(=O)N[C@@H](CCCCN)C(=O)N[C@@H]([C@@H](C)O)C(=O)N[C@@H](Cc2ccccc2)C(=O)N1C)C(=O)O
0.5 nM	C[C@@H](O)[C@@H]1NC(=O)[C@H](CCCCN)NC(=O)[C@@H](Cc2c[nH]c3ccccc23)NC(=O)[C@H](Cc2ccc(O)cc2)NC(=O)[C@H](CCSCC(=O)NC[C@H](N)C(=O)N[C@@H](Cc2ccc(N)cc2)C(=O)N[C@@H](CS)C(=O)N[C@H](CO)[C@@H](C)O)N(C)C(=O)[C@H](Cc2ccccc2)NC1=O
0.35 nM	C[C@@H](O)[C@@H]1NC(=O)[C@H](CCCCN)NC(=O)[C@@H](Cc2c[nH]c3ccccc23)NC(=O)[C@H](Cc2ccc(O)cc2)NC(=O)[C@H](CCSCC(=O)NC[C@H](N)C(=O)N[C@@H](CCCCN)C(=O)N[C@@H](CS)C(=O)N[C@H](CO)[C@@H](C)O)N(C)C(=O)[C@H](Cc2ccccc2)NC1=O
0.2 nM	C[C@@H](O)[C@H](NC(=O)[C@H](CS)NC(=O)[C@H](Cc1ccc(N)cc1)NC(=O)[C@@H](N)CNC(=O)CSCC[C@H]1C(=O)N[C@@H](Cc2ccc(O)cc2)C(=O)N[C@H](Cc2c[nH]c3ccccc23)C(=O)N[C@@H](CCCCN)C(=O)N[C@@H]([C@@H](C)O)C(=O)N[C@@H](Cc2ccccc2)C(=O)N1C)C(=O)N[C@@H](CO)C(=O)O

target: Somatostatin receptor; assay: Displacement of [125I]SRIF-14 from SSTR of rat AR42J cell membranes; parameters: species or system Membrane; conditions: ar-42j

Compound	IC50
CC(C)[C@@H]1NC(=O)[C@H](CCCCN)NC(=O)[C@H](Cc2c[nH]c3ccccc23)NC(=O)[C@H](Cc2ccc(O)cc2)NC(=O)[C@@H](CCS)N(C)C(=O)[C@H](Cc2ccccc2)NC1=O	0.7 nM
C[C@@H](O)[C@@H]1NC(=O)[C@H](CCCCN)NC(=O)[C@H](Cc2c[nH]c3ccccc23)NC(=O)[C@H](Cc2ccc(O)cc2)NC(=O)[C@@H](CCS)NC(=O)[C@H](Cc2ccccc2)N(C)C1=O	23.7 nM
C[C@@H](O)[C@@H]1NC(=O)[C@H](CCCCN)NC(=O)[C@H](Cc2c[nH]c3ccccc23)NC(=O)[C@H](Cc2ccc(O)cc2)NC(=O)[C@@H](CCS)N(C)C(=O)[C@H](Cc2ccccc2)NC1=O	0.1 nM

Second part, the molecule after the results:

IC50	Compound
0.4 nM	C[C@@H](O)[C@@H]1NC(=O)[C@H](CCCCN)NC(=O)[C@H](Cc2c[nH]c3ccccc23)NC(=O)[C@H](Cc2ccc(O)cc2)NC(=O)[C@@H](Cc2ccccc2)N(C)C(=O)[C@H](CCS)NC1=O
1.5 nM	CC(C)[C@@H]1NC(=O)[C@H](CCCCN)NC(=O)[C@H](Cc2c[nH]c3ccccc23)NC(=O)[C@H](Cc2ccc(O)cc2)NC(=O)[C@@H](Cc2ccccc2)N(C)C(=O)[C@H](CCS)NC1=O
